Laboratory results reported in EP4635944A1, “2-AZABICYCLO[3.1.1]HEPTANE COMPOUND” (Daiichi Sankyo Company, Limited, priority 2022, dated 2024).

molecular target: T1, human OX2R (Homo sapiens, UniProt O43614); experiment: Evaluation of OX2R agonist activity (intracellular calcium, CHO-K1 cells with forced expression of human OX2R); format: cell-based; conditions: CHO-K1 cells expressing human OX2R; 100% = 5 µM of the reference compound; read-out: hOX2R EC50
T1 construct: host or cells: CHO-K1 (Chinese Hamster Ovary K1)
T1 sequence (O43614 1-444): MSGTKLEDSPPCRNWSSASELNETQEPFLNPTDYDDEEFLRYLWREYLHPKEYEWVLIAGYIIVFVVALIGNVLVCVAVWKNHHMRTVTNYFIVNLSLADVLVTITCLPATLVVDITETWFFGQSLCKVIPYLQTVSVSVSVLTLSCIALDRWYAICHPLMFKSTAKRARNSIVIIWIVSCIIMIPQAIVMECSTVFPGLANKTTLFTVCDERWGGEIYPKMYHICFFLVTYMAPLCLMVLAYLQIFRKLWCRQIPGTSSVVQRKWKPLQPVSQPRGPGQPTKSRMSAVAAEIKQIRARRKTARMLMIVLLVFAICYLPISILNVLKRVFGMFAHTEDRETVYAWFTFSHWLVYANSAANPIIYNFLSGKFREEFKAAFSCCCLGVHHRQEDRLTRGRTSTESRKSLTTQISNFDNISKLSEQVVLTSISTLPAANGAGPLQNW
Method: Evaluation of OX2R agonist activity
Chinese Hamster Ovary K1 (CHO-K1) cells (GenScript) with forced expression of human OX2R were seeded onto a 384 well microplate (Corning) at 7500 cells/well and cultured for 24 hours. 20 µL of the loading buffer (25 mM HEPES containing 1.25 mM of Probenecid and 2.5 µg/mL of Fluo 4-AM at final concentration, Hank's balanced salt solution, 0.06% Pluronic F-127, Quenching buffer) in the Calcium Kit II (DOJINDO LABORATORIES) was added, and the microplate was allowed to stand for 30 minutes. A reference compound (Example435 of WO 2019/027058, N-[(2S,3S)-2-[[3-(3,5-difluorophenyl)-2-fluoro-phenyl]methyl]-1-(2-hydroxy-2-methylpropanoyl)pyrrolidin-3-yl]ethanesulfonamide) or the test compound was added in 10 µL, and changes in intracellular calcium ion concentration were measured using FDSS7000EX (Hamamatsu Photonics K.K.) as a fluorescence intensity ratio obtained upon dual wavelength excitation at 480 nm and 540 nm. Note that the reference compound or test compound was dissolved in DMSO (final concentration of DMSO was 0.5%) and diluted with an assay buffer (20 mM HEPES, Hank's balanced salt solution, 0.1% BSA). The difference between the maximum and minimum fluorescence values between 5 and 7 seconds after the addition of the test compound or reference compound was used as the indicator. The value of wells to which the assay buffer containing no test compound was added was defined as 0%, and the value of wells to which 5 µM of the reference compound was added was defined as 100%. The 50% effective concentration (EC50 value) was determined from the values obtained when various concentrations of the test compound were added. […]

Row | Compound | EC50 [nM]
1 | CC(C)(O)C(=O)N1C2CC(C2)[C@H](NS(C)(=O)=O)[C@@H]1Cc1cccc(-c2cc(F)cc(F)c2)c1F (single isomer, unassigned) [Example 1] | 67
2 | CN(C)S(=O)(=O)N[C@H]1C2CC(C2)N(C(=O)C(C)(C)O)[C@H]1Cc1cccc(-c2cc(F)cc(F)c2)c1F (single isomer, unassigned) [Example 2] | 89
3 | CCS(=O)(=O)N[C@H]1C2CC(C2)N(C(=O)C(C)(C)O)[C@H]1Cc1cccc(-c2cc(F)cc(F)c2)c1F (single isomer, unassigned) [Example 3] | 92
4 | CC(C)S(=O)(=O)N[C@H]1C2CC(C2)N(C(=O)C(C)(C)O)[C@H]1Cc1cccc(-c2cc(F)cc(F)c2)c1F (single isomer, unassigned) [Example 4] | 225
5 | CCS(=O)(=O)NC1C2CC(C2)N(C(=O)C23CC(C2)C3)C1Cc1cccc(-c2cc(F)cc(F)c2)c1F (single isomer, unassigned) [Example 5, N-{2-(Bicyclo[1.1.1]pentan-1-ylcarbonyl)-3-[(2,3',5'-trifluoro[biphenyl]-3-yl)methyl]-2-azabicyclo[3.1.1]heptan-4-yl}ethanesulfonamide] | 239
6 | CC(C)(O)C(=O)N1C2CC(C2)C(NS(=O)(=O)CF)C1Cc1cccc(-c2cc(F)cc(F)c2)c1F (single isomer, unassigned) [Example 6, 1-Fluoro-N-{2-(2-hydroxy-2-methylpropanoyl)-3-[(2,3',5'-trifluoro[biphenyl]-3-yl)methyl]-2-azabicyclo[3.1.1]heptan-4-yl}methanesulfonamide] | 69
7 | CCS(=O)(=O)NC1C2CC(C2)N(C(=O)N(C)C)C1Cc1cccc(-c2cc(F)cc(F)c2)c1F (single isomer, unassigned) [Example 7, 4-[(Ethylsulfonyl)amino]-N,N-dimethyl-3-[(2,3',5'-trifluoro[biphenyl]-3-yl)methyl]-2-azabicyclo[3.1.1]heptane-2-carboxamide] | 213
8 | CCS(=O)(=O)NC1C2CC(C2)N(C(=O)N2CCC2)C1Cc1cccc(-c2cc(F)cc(F)c2)c1F (single isomer, unassigned) [Example 9, N-{2-(Azetidin-1-ylcarbonyl)-3-[(2,3',5'-trifluoro[biphenyl]-3-yl)methyl]-2-azabicyclo[3.1.1]heptan-4-yl}ethanesulfonamide] | 89
9 | CC(C)(O)C(=O)N1C2CC(F)(C2)C(NS(C)(=O)=O)C1Cc1cccc(-c2cc(F)cc(F)c2)c1F (single isomer, unassigned) [Example 12, N-{5-Fluoro-2-(2-hydroxy-2-methylpropanoyl)-3-[(2,3',5'-trifluoro[biphenyl]-3-yl)methyl]-2-azabicyclo[3.1.1]heptan-4-yl}methanesulfonamide] | 27
10 | CC(C)(O)C(=O)N1C2CC(C2)C(NS(C)(=O)=O)C1Cc1cccc(-c2cc(F)cc(F)c2)c1 (single isomer, unassigned) [Example 13, N-{3-[(3',5'-Difluoro[biphenyl]-3-yl)methyl]-2-(2-hydroxy-2-methylpropanoyl)-2-azabicyclo[3.1.1]heptan-4-yl}methanesulfonamide] | 1140
11 | CC(C)(O)C(=O)N1C2CC(C2)[C@H](NS(C)(=O)=O)[C@@H]1Cc1cccc(-c2cccc(F)c2F)c1F [Example 8, N-{(3S,4S)-2-(2-Hydroxy-2-methylpropanoyl)-3-[(2,2',3'-trifluoro[biphenyl]-3-yl)methyl]-2-azabicyclo[3.1.1]heptan-4-yl}methanesulfonamide] | 83

Continued, values first:

Row | EC50 [nM] | Compound
12 | 80 | CS(=O)(=O)NC1C2CC(C2)N(C(=O)C2CC2)C1Cc1ccnc(-c2cc(F)cc(F)c2)c1F (single isomer, unassigned) [Example 22, N-[2-(Cyclopropylcarbonyl)-3-{[2-(3,5-difluorophenyl)-3-fluoropyridin-4-yl]methyl}-2-azabicyclo[3.1.1]heptan-4-yl]methanesulfonamide]
13 | 34 | C[C@@H](O)C(=O)N1C2CC(F)(C2)C(NS(C)(=O)=O)C1Cc1cccc(-c2cc(F)cc(F)c2)c1F (single isomer, unassigned) [Example 23, N-{(3S,4R)-5-Fluoro-2-[(2R)-2-hydroxypropanoyl]-3-[(2,3',5'-trifluoro[biphenyl]-3-yl)methyl]-2-azabicyclo[3.1.1]heptan-4-yl}methanesulfonamide or N-{(3R,4S)-5-fluoro-2-[(2R)-2-hydroxypropanoyl]-3-[(2,3',5'-trifluoro[biphenyl]-3-yl)methyl]-2-azabicyclo[3.1.1]heptan-4-yl}methanesulfonamide]
14 | 62 | CS(=O)(=O)NC1C(Cc2cccc(-c3cc(F)cc(F)c3)c2F)N(C(=O)C2CC2)C2CC1(F)C2 (single isomer, unassigned) [Example 36, N-{(3S,4R)-2-(Cyclopropylcarbonyl)-5-fluoro-3-[(2,3',5'-trifluoro[biphenyl]-3-yl)methyl]-2-azabicyclo[3.1.1]heptan-4-yl}methanesulfonamide or N-{(3R,4S)-2-(cyclopropylcarbonyl)-5-fluoro-3-[(2,3',5'-trifluoro[biphenyl]-3-yl)methyl]-2-azabicyclo[3.1.1]heptan-4-yl}methanesulfonamide]
15 | 75 | CS(=O)(=O)NC1C2CC(C2)N(C(=O)C2CC2)C1Cc1ccnc(-c2cccc(Cl)c2)c1F (single isomer, unassigned) [Example 60, N-[3-{[2-(3-Chlorophenyl)-3-fluoropyridin-4-yl]methyl}-2-(cyclopropylcarbonyl)-2-azabicyclo[3.1.1]heptan-4-yl]methanesulfonamide]
16 | 40 | CC(C)(O)C(=O)N1C2CC(F)(C2)C(NS(C)(=O)=O)C1Cc1cccc(-c2cccc(Cl)c2)c1F (single isomer, unassigned) [Example 61, N-[(3S,4R)-3-[(3'-Chloro-2-fluoro[biphenyl]-3-yl)methyl]-5-fluoro-2-(2-hydroxy-2-methylpropanoyl)-2-azabicyclo[3.1.1]heptan-4-yl]methanesulfonamide or N-[(3R,4S)-3-[(3'-chloro-2-fluoro[biphenyl]-3-yl)methyl]-5-fluoro-2-(2-hydroxy-2-methylpropanoyl)-2-azabicyclo[3.1.1]heptan-4-yl]methanesulfonamide]
17 | 112 | CS(=O)(=O)N[C@H]1C2CC(C2)N(C(=O)C(O)C(F)F)[C@H]1Cc1cccc(-c2ccccc2)c1F (single isomer, unassigned) [Example 72]
18 | 16 | CCS(=O)(=O)N[C@H]1C2CC(C2)N(C(=O)[C@@H](C)O)[C@H]1Cc1cccc(-c2ccccc2)c1F (single isomer, unassigned) [Example 80]
19 | 43 | CCS(=O)(=O)NC1C2CC(C2)N(C(=O)[C@@H](C)O)C1Cc1cc(F)cc(-c2ccccc2)c1F (single isomer, unassigned) [Example 81]
20 | 79 | CS(=O)(=O)N[C@@H]1[C@H](Cc2cc(F)cc(-c3cccc(Cl)c3)c2F)N(C(=O)[C@H](O)C(F)(F)F)C2CC1(F)C2 (single isomer, unassigned) [Example 82]
21 | 19 | CCS(=O)(=O)N[C@@H]1[C@H](Cc2cccc(-c3ccccc3)c2F)N(C(=O)[C@@H](C)O)C2CC1(F)C2 (single isomer, unassigned) [Example 83]
22 | 231 | CS(=O)(=O)N[C@@H]1[C@H](Cc2cccc(-c3ccccc3)c2F)N(C(=O)c2ccon2)C2CC1(F)C2 (single isomer, unassigned) [Example 84]
23 | 275 | CC(C)(F)C(=O)N1C2CC(F)(C2)[C@H](NS(C)(=O)=O)[C@@H]1Cc1cccc(-c2ccccc2)c1F (single isomer, unassigned) [Example 85]
24 | 112 | C[C@H](O)CC(=O)N1C2CC(C2)[C@H](NS(C)(=O)=O)[C@@H]1Cc1cccc(-c2ccccc2)c1F (single isomer, unassigned) [Example 86]
25 | 9.9 | C=CS(=O)(=O)NC1C(Cc2cc(F)cc(-c3ccccc3)c2F)N(C(=O)[C@@H](C)O)C2CC1(F)C2 (single isomer, unassigned) [Example 96]
26 | 298 | COc1cccc(-c2cccc(C[C@H]3[C@@H](NS(C)(=O)=O)C4CC(C4)N3C(=O)C(C)(C)O)c2F)c1 (stereo in doubt) [Example 14, N-[(3S,4S)-3-[(2-Fluoro-3'-methoxy[biphenyl]-3-yl)methyl]-2-(2-hydroxy-2-methylpropanoyl)-2-azabicyclo[3.1.1]heptan-4-yl]methanesulfonamide]
